How the values were obtained:
Bombus terrestris [1] = experiment: Acute contact (topical) insecticide bioassay of bumble bees; conditions: no synergist, 48 hours after application
Experimental: (§1) Acute contact insecticide assays were performed on female A. mellifera following standard methods OECD 2013 [30]. Bioassays of B. terrestris were based on the OECD guidelines developed for honeybees but with bees assayed in individual Nicot cages. Bees were starved of sucrose solution for up to 2 hr to encourage feeding during the experiment. […] Controls were fed a solution of sucrose containing a concentration of acetone matching that of the highest treatment concentration. After 4-6 hr the syringes were assessed to see if bees had consumed the insecticide-sucrose solution. Those that had not consumed all of the solution were excluded from the experiment. Mortality was assessed 48 hr after feeding and lethal concentrations (LC50 values) were calculated by probit analysis using Genstat version 16 (VSN International). For synergist bioassays, B. terrestris or A. mellifera workers were first treated with 20 μg of piperonyl butoxide or 1 μg of aminobenzotriazole applied to the dorsal thorax. Synergist bioassays included an additional control group treated only with the synergist. 1 hr after synergist application, bees were then treated with the appropriate insecticide dosage as above.

Bombus terrestris [2] = experiment: Acute oral insecticide bioassay of bumble bees, with or without PBO; conditions: for increase in the sensitivity of bumble bees after treatment with PBO: oral bioassay, PBO pretreatment; for LD50: 48 hours after application
Experimental: as §1

CYP9Q3 = CYP9Q3 (Apis mellifera, UniProt A0A7M7LMV1); experiment: in vitro; conditions: for metabolism by the recombinant P450 (in words): hydroxylation (thiacloprid, imidacloprid) or N-desmethylation (acetamiprid)
From the text: (§2) All bee P450 (see Table S3 for accession numbers) and house fly NADPH-dependent cytochrome P450 reductase (CPR) (GenBank accession number Q07994) genes were obtained by gene synthesis (Geneart, CA, USA) and inserted into the pDEST8 expression vector (Invitrogen). Codon optimization of all bee genes was used to optimize expression in lepidopteran cell lines. The PFastbac1 vector with no inserted DNA was used to produce a control virus. The recombinant baculovirus DNA was constructed and transfected into Trichoplusia ni (High five cells, Thermo Fisher) using the Bac-to-Bac baculovirus expression system (Invitrogen) according to the manufacturer’s instructions. The titer of the recombinant virus was determined following protocols of the supplier. High Five cells grown to a density of 2 × 10^6 cells ml^-1 were co-infected with recombinant baculoviruses containing each bee P450 and CPR with a range of MOI (multiplicity of infection) ratios to identify the optimal conditions. Control cells were co-infected with the baculovirus containing vector with no insert (ctrl-virus) and the recombinant baculovirus expressing CPR using the same MOI ratios. Ferric citrate and δ-aminolevulinic acid hydrochloride were added to a final concentration of 0.1 mM at the time of infection and 24 h after infection to compensate the low levels of endogenous heme in the insect cells. After 48 h, cells were harvested, washed with PBS, and microsomes of the membrane fraction prepared according to standard procedures and stored at −80°C [31]. Briefly, pellets were homogenized for 30 s in 0.1M Na/K-phosphate buffer, pH 7.4 containing 1mM EDTA and DTT and 200mM sucrose using a Fastprep (MP Biomedicals), filtered through miracloth and centrifuging for 10 min at 680 g at 4°C. The supernatant was then centrifuged for 1 h at 100,000 g at 4°C, with the pellet subsequently resuspended in 0.1M Na/K-phosphate buffer, pH 7.6 containing 1mM EDTA and DTT and 10% glycerol using a Dounce tissue grinder. P450 expression and functionality was estimated by measuring CO-difference spectra in reduced samples using a Specord 200 Plus Spectrophotometer (Analytik Jena) and scanning from 500 nm to 400 nm. The protein content of samples was determined using Bradford reagent (Sigma) and bovine serum albumin (BSA) as a reference.
(§3) The total assay volume was 200 μL using three replicates for each data point. Microsomes incubated without NADPH served as a control. The assay was stopped by the addition of ice-cold acetonitrile (to 80% final concentration), centrifuged for 10 min at 3000 g and the supernatant subsequently analyzed by tandem mass spectrometry as described previously. For the chromatography on a Waters Acquity HSS T3 column (2.1x50mm, 1.8μm), acetonitrile/water/0.1% formic acid was used as the eluent in gradient mode. […] The peak integrals were calibrated externally against a standard calibration curve. […] Substrate turnover from two independent reactions were plotted versus controls and Michaelis-Menten kinetics determined using GraphPad Prism version 7 (GraphPad Software, CA, USA).

CYP9Q1 = CYP9Q1 (Apis mellifera, UniProt A0A7M7GTV9); experiment: in vitro; conditions: for metabolism by the recombinant P450 (in words): hydroxylation (thiacloprid, imidacloprid) or N-desmethylation (acetamiprid)
From the text: as §2, §3

[3] = target: nicotinic acetylcholine receptor (nAChR); experiment: [3H]imidacloprid displacement, bumble bee head membrane preparations; type: binding, B. terrestris; conditions: bumble bee head membranes; 95% CI given in text
Experimental: [^3H]imidacloprid (specific activity 1.406 GBq μmol^−1) displacement studies were conducted using membrane preparations isolated from frozen (−80°C) honeybee and bumble bee heads, respectively, following previously published protocols. Briefly, bee heads weighing 10cg were homogenized in 200cml ice-cold 0.1cM potassium phosphate buffer, pH 7.4 containing 95cmM sucrose using a motor-driven Ultra Turrax blender. […] Assays were performed in a 96-well microtiter plate with bonded GF/C filter membrane (Packard UniFilter-96, GF/C) and consisted of 200 μL of homogenate (0.48cmg protein), 25 μL of [^3H]imidacloprid (576cpM) and 25 μL of competing ligand. Ligand concentrations used ranged from 0.001 to 10c000cnM and were tested at least in duplicate per competition assay. The assay was started by the addition of homogenate and incubated for 60cmin at room temperature. Bound [^3H]imidacloprid was quantified by filtration into a second 96-well filter plate (conditioned with ice-cold 100cmM potassium phosphate buffer, pH 7.4 (including BSA 5cg liter−1)) using a commercial cell harvester (Brandel). […] Each well was then loaded with 25 μL of scintillation cocktail (Microszint-O-Filtercount, Packard) and the plate counted in a Topcount scintillation counter (Packard). Non-specific binding was determined using a final concentration of 10cμM unlabelled imidacloprid. […]

[4] = apparent value, mean ± SD (n=3), decimal commas

CYP9Q1, sequence (Q07994 whole entry): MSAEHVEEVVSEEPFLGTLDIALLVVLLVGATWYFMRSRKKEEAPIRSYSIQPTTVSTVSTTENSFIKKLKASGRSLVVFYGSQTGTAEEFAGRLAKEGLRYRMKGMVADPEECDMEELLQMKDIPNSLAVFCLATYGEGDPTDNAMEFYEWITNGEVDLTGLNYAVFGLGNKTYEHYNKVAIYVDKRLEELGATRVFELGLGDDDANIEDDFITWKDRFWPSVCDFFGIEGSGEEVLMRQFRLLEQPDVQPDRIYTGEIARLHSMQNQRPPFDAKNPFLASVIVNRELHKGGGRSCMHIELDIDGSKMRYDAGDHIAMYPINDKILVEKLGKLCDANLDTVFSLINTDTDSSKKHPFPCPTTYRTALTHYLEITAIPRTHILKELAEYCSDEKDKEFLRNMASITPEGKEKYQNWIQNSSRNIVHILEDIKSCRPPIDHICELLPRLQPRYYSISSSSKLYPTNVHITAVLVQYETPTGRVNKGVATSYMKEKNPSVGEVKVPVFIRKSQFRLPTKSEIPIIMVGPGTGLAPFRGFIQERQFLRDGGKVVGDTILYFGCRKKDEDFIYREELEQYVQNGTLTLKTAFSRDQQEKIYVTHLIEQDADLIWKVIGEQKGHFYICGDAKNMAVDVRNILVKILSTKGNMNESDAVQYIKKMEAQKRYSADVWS
CYP9Q1, sequence (A0A7M7GTV9 entry or part of it): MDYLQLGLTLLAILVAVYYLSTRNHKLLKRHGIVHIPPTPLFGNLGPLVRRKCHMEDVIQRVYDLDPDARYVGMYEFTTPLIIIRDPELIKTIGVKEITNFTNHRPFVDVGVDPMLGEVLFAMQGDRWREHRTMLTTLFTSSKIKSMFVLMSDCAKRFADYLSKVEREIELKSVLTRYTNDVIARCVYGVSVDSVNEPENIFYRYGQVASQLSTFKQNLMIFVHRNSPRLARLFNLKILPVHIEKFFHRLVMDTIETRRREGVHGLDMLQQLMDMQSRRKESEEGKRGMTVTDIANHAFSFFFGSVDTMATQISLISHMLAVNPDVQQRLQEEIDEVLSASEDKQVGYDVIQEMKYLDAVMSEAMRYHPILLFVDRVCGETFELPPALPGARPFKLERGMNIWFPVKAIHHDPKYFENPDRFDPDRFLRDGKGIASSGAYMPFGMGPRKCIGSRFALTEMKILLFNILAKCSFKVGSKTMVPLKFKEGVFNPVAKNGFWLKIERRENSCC
CYP9Q3, sequence (A0A7M7LMV1 entry or part of it): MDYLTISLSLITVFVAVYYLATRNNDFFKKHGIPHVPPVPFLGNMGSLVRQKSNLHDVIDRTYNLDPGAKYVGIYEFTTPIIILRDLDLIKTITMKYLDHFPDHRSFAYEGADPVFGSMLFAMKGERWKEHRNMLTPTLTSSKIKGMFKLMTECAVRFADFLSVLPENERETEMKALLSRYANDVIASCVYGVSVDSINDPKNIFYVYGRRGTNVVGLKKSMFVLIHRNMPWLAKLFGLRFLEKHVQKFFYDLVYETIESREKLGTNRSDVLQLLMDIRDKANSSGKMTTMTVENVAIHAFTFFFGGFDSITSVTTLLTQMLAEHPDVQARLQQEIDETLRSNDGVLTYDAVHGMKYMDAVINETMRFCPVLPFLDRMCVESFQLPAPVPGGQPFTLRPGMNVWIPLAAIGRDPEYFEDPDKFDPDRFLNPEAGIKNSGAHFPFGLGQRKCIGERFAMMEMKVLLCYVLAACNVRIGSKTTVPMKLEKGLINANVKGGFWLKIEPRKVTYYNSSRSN
CYP9Q3, sequence (Q07994 whole entry, further chain): as the sequence (Q07994 whole entry) above

Row | SMILES | LD50 (Bombus terrestris [1]) | increase in the sensitivity of bumble bees after treatment with PBO (Bombus terrestris [2]) | Synergism Ratio (Bombus terrestris [2]; oral, PBO versus no synergist) | LD50 (Bombus terrestris [2]; oral, no synergist) | LD50 (Bombus terrestris [2]; oral, synergist PBO) | metabolism by the recombinant P450 (in words) (CYP9Q3) | metabolism by the recombinant P450 (in words) (CYP9Q1) | IC50 [3] | Km at 2 h (CYP9Q3; Apis mellifera) | Vmax, thiacloprid hydroxylation (CYP9Q3; [4]) | Km at 2 h (CYP9Q1; Apis mellifera) | Vmax, thiacloprid hydroxylation (CYP9Q1; [4])
1 | O=[N+]([O-])NC1=NCCN1Cc1ccc(Cl)nc1 [imidacloprid] | 0.38 μg/bee | no significant shift | 1.2 | 0.038 μg/bee | 0.032 μg/bee | much lower efficiency than exhibited for thiacloprid | much lower efficiency than exhibited for thiacloprid | 0.71 nM |  |  |  | 
2 | N#C/N=C1\SCCN1Cc1ccc(Cl)nc1 [thiacloprid] | > 100 μg/bee | 4.2 fold |  | 19.68 μg/bee | 4.73 μg/bee | highly efficient metabolizer | weak activity | 0.62 nM | 3.92 µM | 607,8±5,48 pmol min-1 mg-1 | 17.8 µM | 3,92 ±0,08 pmol min-1 mg-1
